# Data published in patent publication US20140193454A1, “METHOD FROM PREPARING CERIPORIA LACERATA CULTURE EXTRACT AND PHARMACEUTICAL COMPOSITION FOR PREVENTION OR TREATMENT OF DIABETES AND DIABETIC COMPLICATIONS COMPRISING CERIPORIA LACERATA CULTURE EXTRACT AS ACTIVE INGREDIENT” (priority 2013, published 2014).
# Columns and labels:
# Assay type in all cases: in vivo
# [1] = test system: C57BL/Ksj (BL/Ls) homozygous diabetic (db/db) mice; assay: Organ weight of db/db mice after 6-week oral administration; conditions: 300 mg/kg orally every day, 6 weeks
# Experimental: In the animals, as the leptin receptor decreases, the signaling ability decreases, and thus the blood glucose level increases. The animals are recognized as an insulin-independent diabetes model and suitable for the evaluation and comparison of experimental results on the basis of raw data. For these reason, these db/db mice were selected in this experiment. […] The mice were acclimated for about 7 days, and the weight and blood glucose level thereof were measured. 30 healthy animals suitable for experimentation and having no abnormal general conditions were selected. The experimental animals were divided according to a randomized block design into a negative control group, an exopolysaccharide low-dose group (150 mg/kg), an exopolysaccharide high-dose group (300 mg/kg) and a positive control group (metformin-300 mg/kg) such that the blood glucose level and weight are equal between the groups. These mice were reared for 6 weeks. In addition, normal and control groups, each consisting of 6 animals, were kept for 6 weeks under the same conditions. All test substances and positive control substances were orally administered at the same point of time every day, and the normal and negative control groups were orally administered with water (FIG. 11). During the rearing period of 6 week, a change in the weight was measured once weekly. In order to examine a change in the blood glucose level, the tail vein blood glucose level was measured using ACCU-CHEK Sensor (Germany) once weekly after 12-hr fasting. The experimental animals were fed with a commercially available animal solid feed (Samtaco Co. Ltd., Korea) and allowed access to water ad libitum. The animals were reared under the conditions of temperature of 23±3° C. and relative humidity of 50±10% with a 12-hr light/12-hr dark cycle (lighting: a.m. 8 to p.m. 8). For sacrifice of the experimental animals, all the animals were fasted for 12 hours and anesthetized with ether. Blood was taken from the saphenous vein and placed in a tube for serum separation. Then, the blood was centrifuged at 3,000 rpm for 20 minutes to obtain serum which was to be used as a sample for analysis of biochemical markers. Immediately after sacrifice, the liver, abdominal fat and the like were extracted from all the animals, weighed, fast-frozen at -80° C. and stored until use. Portions of the extracted liver and pancreas were fixed in 4% paraformaldehyde solution and subjected to histological analysis.
# [2] = test system: C57BL/Ksj (BL/Ls) homozygous diabetic (db/db) mice; assay: Changes in food intake, water intake and weight of db/db mice over 6 weeks; conditions: 300 mg/kg, versus other groups
# Source text: (§1) In order to examine the blood glucose lowering effects of the Ceriporia lacerata culture and exopolysaccharide, C57BL/Ksj (BL/Ls) homozygous diabetic (db/db) mice (SPF) as a typical type 2 diabetes animal model were used in this experiment. db/db mice are animals in which diabetes is caused by a point mutation in the leptin receptor gene Lepr of chromosome 4. In the animals, as the leptin receptor decreases, the signaling ability decreases, and thus the blood glucose level increases. The animals are recognized as an insulin-independent diabetes model and suitable for the evaluation and comparison of experimental results on the basis of raw data. For these reason, these db/db mice were selected in this experiment. The db/db mice used in this study were 6-week-old male mice weighing about 30-40 g, and these mice were produced in Japan SLC Inc. and obtained from Central Laboratory Animal (Korea). The mice were acclimated for about 7 days, and the weight and blood glucose level thereof were measured. 30 healthy animals suitable for experimentation and having no abnormal general conditions were selected. […] During the rearing period of 6 week, a change in the weight was measured once weekly. In order to examine a change in the blood glucose level, the tail vein blood glucose level was measured using ACCU-CHEK Sensor (Germany) once weekly after 12-hr fasting. […]
# [3] = test system: C57BL/Ksj (BL/Ls) homozygous diabetic (db/db) mice; assay: Weekly tail vein blood glucose level after 12-hr fasting; conditions: after 3 weeks (diabetes control about 400 mg/dL)
# Source text: as §1
compound,measurement,setting,value
"CN(C)C(=N)N=C(N)N [MET, metformin]",Abdominal fat (W/BW),[1],2.564 ± 0.33 W/BW
same,Kidney (W/BW),[1],0.39 ± 0.03 W/BW
same,Kidney fat (W/BW),[1],0.89 ± 0.13 W/BW
same,Liver (W/BW),[1],2.60 ± 0.19 W/BW
same,Spleen (W/BW),[1],0.03 ± 0.02 W/BW
same,feed intake,[2],significantly lower
same,water intake,[2],significantly lower
same,blood glucose level after 12-hr fasting,[3],no increase in the blood glucose level
